Assay results published in patent US11597724B2, “Herbicidally active 3-phenylisoxazoline-5-carboxamides of tetrahydro and dihydrofuran carboxylic acids and esters” (Bayer Aktiengesellschaft, priority 2017, dated 2023).

Columns and labels:
Assay type in all cases: in vivo
[1] = tested on: Setaria viridis; experiment: Pre-emergence herbicidal activity against SETVI; conditions: dosage 80 g/ha; for pest or weed control at 80 g/ha: Setaria viridis, 504 h
Source text: (§1) 1. Pre-Emergence Herbicidal Action and Crop Plant Compatibility Seeds of monocotyledonous and dicotyledonous weed plants and crop plants are placed in plastic or wood fiber pots and covered with soil. The compounds of the invention, formulated in the form of wettable powders (WP) or as emulsion concentrates (EC), are then applied onto the surface of the covering soil as aqueous suspension or emulsion with addition of 0.5% additive at a water application rate of 600 l/ha (converted). After the treatment, the pots are placed in a greenhouse and kept under good growth conditions for the trial plants. After about 3 weeks, the effect of the preparations is scored visually in comparison with untreated controls as percentages. For example, 100% activity=the plants have died, 0% activity=like control plants. POLCO: Polygonum convolvulus SETVI: Setaria viridis

[2] = tested on: Polygonum convolvulus; experiment: Pre-emergence herbicidal activity against POLCO; conditions: dosage 80 g/ha; for pest or weed control at 80 g/ha: Fallopia convolvulus, 504 h
Source text: as §1

[3] = tested on: Pharbitis purpurea; experiment: Post-emergence herbicidal activity against PHBPU; conditions: dosage 320 g/ha, rated about 3 weeks after treatment; for pest or weed control at 320 g/ha: Ipomoea purpurea, 504 h
Procedure, shortened: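 Greenhouse-grown plants sprayed post-emergence at the one-leaf stage, 2 to 3 weeks after sowing, with WP or EC formulations plus 0.5% additive at 600 l/ha water. Activity rated visually after about 3 weeks versus untreated controls (100% = plants dead, 0% = like control).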

[4] = tested on: Veronica persica; experiment: Post-emergence herbicidal activity against VERPE; conditions: dosage 320 g/ha; for pest or weed control at 320 g/ha: Veronica persica, 504 h
Procedure, shortened: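 Greenhouse plants treated at one-leaf stage, 2–3 weeks after sowing, by spraying WP or EC formulations with 0.5% additive at 600 l/ha water. Visual rating about 3 weeks later versus untreated controls (100% = plants dead, 0% = like controls).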

[5] = Post-emergence treatment, summary over harmful plants; conditions: 504 h, application rate of 0.32 kg of active substance or less per hectare, read-out: herbicidal action, post-emergence treatment (very good herbicidal activity)
Procedure, shortened: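 Greenhouse-grown weeds and crops were sprayed at the one-leaf stage (2–3 weeks post-sowing) with WP or EC formulations plus 0.5% additive at 600 l/ha water. About 3 weeks later, activity was visually rated against untreated controls (100% = dead plants, 0% = like control).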

[6] = tested on: Stellaria media; experiment: Pre-emergence herbicidal activity against STEME; conditions: dosage 80 g/ha; for pest or weed control at 80 g/ha: Stellaria media, 504 h
Source text: as §1, with “STEME: Stellaria media VERPE: Veronica persica” for “POLCO: Polygonum convolvulus SETVI: Setaria viridis”

[7] = tested on: Amaranthus retroflexus; experiment: Post-emergence herbicidal activity against AMARE; conditions: dosage 320 g/ha, rated about 3 weeks after treatment; for pest or weed control at 320 g/ha: Amaranthus retroflexus, 504 h
Procedure, shortened: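 Greenhouse pots of sandy loam; plants sprayed at one-leaf stage, 2 to 3 weeks after sowing, with WP or EC formulations in water plus 0.5% additive at 600 l/ha. Activity rated visually after about 3 weeks against untreated controls (100% = plants dead, 0% = like control).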

Structure (SMILES) | pest or weed control at 80 g/ha [1] [%] | pest or weed control at 80 g/ha [2] [%] | pest or weed control at 320 g/ha [3] [%] | pest or weed control at 320 g/ha [4] [%] | pest or weed control at 320 g/ha [5] [%] | pest or weed control at 80 g/ha [6] [%] | pest or weed control at 320 g/ha [7] [%] | Pre-emergence herbicidal activity against SETVI in % [1] [%] | Pre-emergence herbicidal activity against POLCO in % [2] [%] | Pre-emergence herbicidal activity against STEME in % [6] [%] | Post-emergence herbicidal activity against AMARE in % [7] [%] | Post-emergence herbicidal activity against PHBPU in % [3] [%] | Post-emergence herbicidal activity against VERPE in % [4] [%]
COC(=O)[C@H]1C[C@@H](NC(=O)[C@@]2(C)CC(c3cc(F)cc(F)c3)=NO2)CO1 (mixture of isomers) [I-09, methyl cis-4-[[(5R)-3-(3,5-difluorophenyl)-5-methyl-4H-isoxazole-5-carbonyl]amino]tetrahydrofuran-2-carboxylate] | 80 | 100 | 90 | 80 | 80 to 100 |  |  |  |  |  |  |  | 
C=C[C@]1(C(=O)N[C@H]2CO[C@@H](C(=O)OC)C2)CC(c2cc(F)cc(F)c2)=NO1 (mixture of isomers) [I-10, methyl cis-4-[[(5S)-3-(3,5-difluorophenyl)-5-vinyl-4H-isoxazole-5-carbonyl]amino]tetrahydrofuran-2-carboxylate] | 100 | 100 | 90 | 80 | 80 to 100 | 100 | 80 |  |  |  |  |  | 
C=C[C@]1(C(=O)N[C@H]2CO[C@@H](C(=O)OCC)C2)CC(c2cc(F)cc(F)c2)=NO1 (mixture of isomers) [I-35, ethyl cis-4-[[(5S)-3-(3,5-difluorophenyl)-5-vinyl-4H-isoxazole-5-carbonyl]amino]tetrahydrofuran-2-carboxylate] | 100 | 100 | 90 | 80 | 80 to 100 | 100 | 90 |  |  |  |  |  | 
C=C[C@]1(C(=O)N[C@H]2CO[C@@H](C(=O)OC(C)C)C2)CC(c2cc(F)cc(F)c2)=NO1 (mixture of isomers) [I-36, isopropyl cis-4-[[(5S)-3-(3,5-difluorophenyl)-5-vinyl-4H-isoxazole-5-carbonyl]amino]tetrahydrofuran-2-carboxylate] | 100 | 100 | 80 | 90 | 80 to 100 | 100 | 90 |  |  |  |  |  | 
CC1(C(=O)NC2COC(C(=O)O)C2)CC(c2cc(F)cc(F)c2)=NO1 (mixture of isomers) [I-41] |  |  |  |  |  |  |  | 100 | 90 | 100 | 100 | 90 | 80
CC(C)(C)OC(=O)C1CC(NC(=O)C2(C)CC(c3cc(F)cc(F)c3)=NO2)CO1 (mixture of isomers) [I-42] |  |  |  |  |  |  |  | 100 | 100 | 100 | 80 | 90 | 80
CCOC(=O)C1CC(NC(=O)C2(C)CC(c3cc(F)cc(F)c3)=NO2)CO1 (mixture of isomers) [I-43] |  |  |  |  |  |  |  | 100 | 100 | 100 | 80 | 90 | 90
CC1(C(=O)NC2COC(C(=O)OCc3ccccc3)C2)CC(c2cc(F)cc(F)c2)=NO1 (mixture of isomers) [I-45] |  |  |  |  |  |  |  | 100 | 100 | 100 | 80 | 90 | 80
COC(=O)C1CC(NC(=O)C2(C)CC(c3cc(F)cc(F)c3)=NO2)CO1 (mixture of isomers) [I-48] |  |  |  |  |  |  |  | 100 | 100 | 100 | 80 | 80 | 80
CCOC(=O)[C@H]1C[C@@H](NC(=O)C2(C)CC(c3cccc(F)c3)=NO2)CO1 (mixture of isomers) [I-30, ethyl cis-4-[[(5RS)-3-(3-fluorophenyl)-5-methyl-4H-isoxazole-5-carbonyl]amino]tetrahydrofuran-2-carboxylate] | 100 | 90 | 90 | 80 | 80 to 100 | 90 |  |  |  |  |  |  | 
COC(=O)[C@H]1C[C@@H](NC(=O)C2(OC)CC(c3cc(F)cc(F)c3)=NO2)CO1 (relative stereo) [I-05, methyl cis-4-[[3-(3,5-difluorophenyl)-5-methoxy-4H-isoxazole-5-carbonyl]amino]tetrahydrofuran-2-carboxylate] | 90 | 80 | 90 | 80 | 80 to 100 |  |  |  |  |  |  |  | 
C=C[C@]1(C(=O)N[C@H]2CO[C@@H](C(=O)OC)C2)CC(c2cc(F)cc(F)c2)=NO1 (single isomer, unassigned) [I-11] |  |  | 90 |  |  |  | 90 | 100 | 100 | 100 |  |  | 
C=C[C@]1(C(=O)N[C@H]2CO[C@@H](C(=O)OC)C2)CC(c2cc(F)cc(F)c2)=NO1 (single isomer, unassigned) [I-12] | 100 | 100 |  |  | 80 to 100 | 100 |  |  |  |  | 90 | 90 | 
COC(=O)C1COCC1NC(=O)C1(C)CC(c2cc(F)cc(F)c2)=NO1 (centres unmarked) [I-19, methyl 4-[[3-(3,5-difluorophenyl)-5-methyl-4H-isoxazole-5-carbonyl]amino]tetrahydrofuran-3-carboxylate] |  | 90 | 80 | 80 | 80 to 100 | 80 | 90 |  |  |  |  |  | 
C=C[C@]1(C(=O)NC2COCC2C(=O)OC)CC(c2cc(F)cc(F)c2)=NO1 (stereo partly drawn) [I-26, methyl 4-[[(5S)-3-(3,5-difluorophenyl)-5-vinyl-4H-isoxazole-5-carbonyl]amino]tetrahydrofuran-3-carboxylate] | 100 |  | 80 | 90 | 80 to 100 | 100 | 80 |  |  |  |  |  | 
CC(C)OC(=O)C1CC(NC(=O)C2(C)CC(c3cc(F)cc(F)c3)=NO2)CO1 (centres unmarked) [I-44] |  |  |  |  |  |  |  | 100 | 100 | 90 | 80 | 90 | 80
COC(=O)C1CC(NC(=O)C2(C(C)(F)F)CC(c3cc(F)cc(F)c3)=NO2)CO1 (centres unmarked) [I-49] |  |  |  |  |  |  |  | 100 | 100 | 100 |  | 80 | 80
